Earlier results on two compounds are cited in PMC5096457 (Cell chemical biology, 2016).

One data set has as its system c-Kit. The settings on record: ref DiNitto et al., 2010.
Data set [1] relates to NIH 3T3 Src−/− cells overexpressing Src (Y529F). The note with it: high micromolar concentrations; ref Georghiou et al., 2012.

Turning to `CCN(CC)CCNC(=O)c1c(C)[nH]c(/C=C2\C(=O)Nc3ccc(F)cc32)c1C` [sunitinib], in the data set with c-Kit, the “fold increase in IC50 against activated kinase target” value was 300 fold.

With `NC(=O)[C@@H]1CCCNC(=O)[C@H](Cc2ccc([N+](=O)[O-])cc2)NC(=O)[C@H](Cc2ccc(F)cc2)NC(=O)[C@H](CC2CCCCC2)NC(=O)/C=C/C(=O)N1` [MC25a], in data set [1], the global tyrosine phosphorylation result is “decreased global tyrosine phosphorylation”.
